Experimental data: patent US3949075A, “Anti-microbial compounds of 2', 4' substituted anilides of substituted nitrosalicylic acid for quadruped animals” (Ferro Corporation, priority 1974, dated 1976)
Read-outs that look alike come from different tables or passages of the source.

Experiments:
[1] = system: Haemonchus and Fasciola hepatica; assay: Dual activity against Haemonchus and Fasciola in sheep and therapeutic ratio; assay type: in vivo; details: sheep; for dual activity relative to other isomers, in words: Table IX, listed as methyl 2'; for overall activity ranking, in words: Table X
[2] = Tolerance / toxicity in sheep; assay type: in vivo; parameters: key to Tolerance at 100 mg/kg / Tolerance at 50 mg/kg: "toxic" refers to death of sheep resulting from the use of the indicated compound at the indicated dosage; key to Tolerance: Tol.: tolerated; Tox.: toxic; Sym.: symptoms of toxic reaction; details: in vivo, Table 1, read-out: Tolerance, highest test dosage at which the sheep developed no toxic symptoms
Procedure: (§1) The results of tests on sheep in a manner described, supra, using compounds of the present invention are given in Table 1, Examples 5 through 13. The numbers in the column headed "Haemonchus (15 mg/kg)" refer to the percent of parasites destroyed or expelled when the indicated compound was introduced into the rumen of sheep at a dosage of 15 milligrams per kilogram of body weight. The values under "Tolerance (mg/kg)" refer to the highest test dosage in the milligrams of anthelmintic per kilogram of body weight at which the sheep developed no toxic symptoms. "Tol." is an abbreviation for "tolerated". The symbols R1 and R2 refer to those of Formula I in these and other following examples.
(§2) The importance of the 2',4' substitution on the anilide moiety of Formula I is illustrated by the case of the dichloro substitution as summarized in Table III. […] This has been mentioned briefly hereinabove. As used herein, "toxic" refers to death of sheep resulting from the use of the indicated compound at the indicated dosage.
(§3) The data of the tables were generated using procedures previously described. The compounds tested are disubstituted and, except for Example 50 which is dibromo, are dichloro. Where the position for the substituents is other than 2' and 4', it is indicated. Under the indicated microorganisms, the values given in this and the following tables, should be read as: percentage of microorganism killed/dose in milligrams per kilogram of body weight. Under "Tolerance", the term "Tol." means "tolerated", "Tox." means "toxic", and "Sym." means "symptoms of toxic reaction", all at the dosage value which follows. It will be appreciated that there is no sharp toxicity end point in determining toxicity to living sheep.

[3] = system: sheep; assay: Tolerance / toxicity in sheep; assay type: in vivo; parameters: key to Tolerance at 100 mg/kg / Tolerance at 50 mg/kg: "toxic" refers to death of sheep resulting from the use of the indicated compound at the indicated dosage; key to Tolerance: Tol.: tolerated; Tox.: toxic; Sym.: symptoms of toxic reaction; details: for Tolerance at 50 mg/kg / Tolerance at 100 mg/kg: Tables III and IV
Procedure: as §1, §2, §3

[4] = system: liver flukes of the genus Fasciola; assay: Utility against liver flukes of the genus Fasciola in sheep (oral); assay type: in vivo; details: for effect against (mature) liver flukes: oral, 5 mg/kg, within three days; for effect against liver flukes: 15 mg/kg
Procedure: (§4) Test for activity against liver flukes were conducted as follows:
(§5) Eggs of Fasciola hepatica were collected from the bile of donor sheep. The eggs were embryonated and snails were infected (the genus Lymnaea serves as intermediate host) to produce Metacercariae which are the infective forms for sheep. Each sheep was infected with 250 metacercariae intraruminally. When the infection became patent in ca. 80 days, egg counts were carried out to determine the degree of worm burden. The liver was processed to recover F. hepatica in the untreated and treated sheep.
The compounds of this invention also have utility against liver flukes.

[5] = system: Haemonchus contortus; assay: Percent of Haemonchus destroyed or expelled in infected sheep (egg count after treatment); assay type: in vivo, Haemonchus contortus (in sheep); details: for Effectiveness at 15 mg/kg against Haemonchus: Table VI; for effective in killing or expelling Haemonchus: dose not given; for Haemonchus (2 mg/kg), percent of parasites destroyed or expelled / Haemonchus (15 mg/kg), percent of parasites destroyed or expelled / Haemonchus (5 mg/kg), percent of parasites destroyed or expelled: into rumen, Table 1
Procedure: Two groups of sheep were used in the tests. One group was used as a non-medicated control, while the other group was treated with the compound under investigation. Helminth-free young lambs were infected with about 10,000 filariform larvae of Haemonchus contortus. In three weeks when the infection became apparent, egg counts were made to determine the density of the worm burden.
The egg count was carried out using the following modified Stoll method. Three grams of sheep feces were taken rectally from each animal and placed in a Stoll flask. To each flask, tap water was added to the top line. The fecal pellets were too hard to break down, the flasks were closed with rubber stoppers and kept in the refrigerator for several hours. The flasks were thoroughly shaken and a 1 ml. sample was drawn from the middle using a wide mouth pipette. This 1 ml. sample was transferred to an 8 ml. plastic tube, to which enough saturated sodium chloride solution was added to reach the rim. The tubes were then centrifuged for 10 minutes at 1500 r.p.m. Then sodium chloride solution was added with a medicine dropper forming a concave miniscus. A cover glass was carefully added and the tubes were kept in a refrigerator for ten to twenty minutes. During that period, the nematode ova flowed upward and adhered to the bottom of the cover glass slip. At the end of the 20-minute period, the cover slip was carefully detached from the miniscus and transferred to a microscopic slide. The ova were then counted under a microscope equipped with 10X ocular and 10X objective lens. Each ovum under the microscope represented 20 ova in the sample.
Animals with sufficiently high egg counts were taken out of the pool and housed in experimental pens. Since the salicylanilides of the present invention are water insoluble, the compounds were first ground using a mortar and pestle and then were placed in a carboxymethyl cellulose solution. The particles were further micronized ultrasonically. The compound was then administered to two or three animals by Oesophageal gavage. Control, untreated animals, received only the carboxymethyl cellulose solution in a similar manner. On the sixth and seventh day after treatment, fecal pellets were taken from the rectum of the control as well as the treated animals and egg counts were made.
as §1, §3

[6] = system: Fasciola hepatica; assay: Test for activity against liver flukes, Fasciola hepatica, in infected sheep; assay type: in vivo; details: for inhibition in vivo at 1 mg/kg: Tables VIII and X
Procedure: as §4, §5, §3

[7] = Haemonchus contortus, iv, sheep, 15 mg/kg, Tables III and IV, read-out: Effectiveness (%) at 15 mg/kg
[8] = Haemonchus contortus, sheep, Tables VIII-XI, read-out: Haemonchus, percentage of microorganism killed
[9] = Haemonchus contortus, sheep, 5 mg/kg, Tables VIII-XI, read-out: Haemonchus, percentage of microorganism killed
[10] = sheep, 5 mg/kg, Tables III and IV
[11] = Fasciola hepatica, read-out: Fasciola hepatica, percentage of microorganism killed
[12] = Fasciola hepatica, sheep, read-out: Fasciola hepatica, percentage of microorganism killed
[13] = Fasciola hepatica, sheep, 2 mg/kg, Tables VIII-XI, read-out: Fasciola hepatica, percentage of microorganism killed
[14] = Haemonchus contortus, sheep, 15 mg/kg, Tables VIII-XI, read-out: Haemonchus, percentage of microorganism killed
[15] = Fasciola hepatica, sheep, 5 mg/kg, Tables VIII-XI, read-out: Fasciola hepatica, percentage of microorganism killed
[16] = Fasciola hepatica, sheep, Tables VIII-XI, read-out: Fasciola hepatica, percentage of microorganism killed

Row | SMILES | NOAEL [2] [mg/kg] | Tolerance ([3]; 50 mg./kg., Tables VIII-X) | Tolerance at 50 mg/kg [3] | Tolerance ([3]; 100 mg./kg., Tables VIII, IX) | Tolerance at 100 mg/kg [3] | effect against (mature) liver flukes [4] | inhibition in vivo at 15 mg/kg [5, 7] [%] | inhibition in vivo at 2 mg/kg [5, 8] [%] | inhibition in vivo at 5 mg/kg [5, 9] [%] | Effectiveness (%) at 5 mg/kg [5, 10] [%] | Effectiveness at 15 mg/kg against Haemonchus ([5]; sheep, 15 mg/kg) [%] | effective in killing or expelling Haemonchus ([5]; sheep) [%] | Haemonchus (2 mg/kg), percent of parasites destroyed or expelled ([5]; sheep) [%] | Haemonchus (15 mg/kg), percent of parasites destroyed or expelled ([5]; sheep, 15 mg/kg) [%] | inhibition in vivo at 1 mg/kg [6, 12] [%] | inhibition in vivo at 2 mg/kg [6, 13] [%] | Tolerance ([3]; 25 mg./kg., Tables IX, X) | inhibition in vivo at 15 mg/kg [5, 14] [%] | inhibition in vivo at 5 mg/kg [6, 15] [%] | effect against liver flukes [4] | also measured
1 | Cc1c([N+](=O)[O-])cc(C(C)(C)C)c(O)c1C(=O)Nc1ccc(Cl)cc1Cl [Example 5, 3-tert. butyl-2', 4'-dichloro-6-methyl-5-nitrosalicylanilide] | 50 to 100 | Tol. | nontoxic | Sym. | toxic | completely destroyed all flukes | 100 | 14 | 100 | 100 | 100 | 100 | 14 | 100 | 44 | 99 |  |  |  |  | dual activity against both Haemonchus and Fasciola ([1]; 5 mg./kg.): 100%; inhibition in vivo at 15 mg/kg ([5]; Haemonchus contortus, read-out: Haemonchus, percentage of microorganism killed, sheep, 15 mg/kg, Tables VIII-XI): 100%; activity at 5 mg./kg. ([5]; sheep, 5 mg/kg): 100%; inhibition in vivo at 5 mg/kg [6, 11]: 100%; dose ratio: times less than the dose at which the 2',5' dichloro compound had no activity (Fasciola) ([6]; sheep): 2.5 times; effective against Fasciola ([6]; sheep, dose 2.5 times less than that at which the 2',5' dichloro compound had no activity): 99%
2 | Cc1cc(Cl)ccc1NC(=O)c1c(C)c([N+](=O)[O-])cc(C(C)(C)C)c1O [Example 6, 3-tert. butyl-4'-chloro-2', 6-dimethyl-5-nitrosalicylanilide] | 50 to 100 | Sym. | non toxic | Tox. | toxic | The same effects against mature flukes | 100 | 67 |  | 95 | 100 | 100 | 67 | 100 |  |  | Tol. | 100 | 100 |  | dual activity relative to other isomers, in words ([1]; chloro 4' compound): much greater dual activity; dual activity relative to other isomers, in words ([1]; chloro 4' isomer): very active at doses well below those at which other isomers are inactive; inhibition in vivo at 5 mg/kg ([5]; Haemonchus contortus, read-out: Haemonchus, percentage of microorganism killed, sheep, 5 mg/kg, Tables VIII-XI): 99%; activity against Haemonchus relative to other isomers, in words ([5]; sheep): greater activity against Haemonchus; inhibition in vivo at 2 mg/kg [6, 11]: 0%
3 | Cc1c([N+](=O)[O-])cc(C(C)(C)C)c(O)c1C(=O)Nc1ccc(C(F)(F)F)cc1 [Example 10, 3-tert. butyl-6-methyl-5-nitro-4'-trifluoromethylsalicylanilide] | 15 to 50 |  |  |  |  |  |  |  |  |  |  |  |  | 100 |  |  |  | 100 |  | efficacious | inhibition in vivo at 15 mg/kg ([5]; Haemonchus contortus, sheep, 15 mg/kg, Table V, read-out: Effectiveness at 15 mg/kg against Haemonchus): 100%; inhibition in vivo at 15 mg/kg [6, 16]: 100%
4 | Cc1c([N+](=O)[O-])cc(C(C)(C)C)c(O)c1C(=O)Nc1ccc(Br)cc1C(F)(F)F [Example 11] | ≥ 20 |  |  |  |  |  |  | 99.8 | 100 |  |  |  | 99.8 |  | 100 | 100 |  |  | 100 |  | overall activity ranking, in words [1]: most active compounds of the invention; Tolerance ([3]; 20 mg./kg., Table X): Tol.; Tolerance ([3]; 35 mg./kg., Table X): Tol.; Tolerance, highest test dosage at which the sheep developed no toxic symptoms ([3]; Table 1, listed as 12): ≥ 35 mg/kg; Haemonchus (5 mg/kg), percent of parasites destroyed or expelled ([5]; sheep, 5 mg/kg): 100%; inhibition in vivo at 0.5 mg/kg ([6]; Fasciola hepatica, sheep, 0.5 mg/kg, Table X, read-out: Fasciola hepatica, percentage of microorganism killed): 97%
5 | Cc1c([N+](=O)[O-])cc(C(C)(C)C)c(O)c1C(=O)Nc1ccc(Cl)cc1C(F)(F)F [Example 13] | ≥ 15 | Tox. |  |  |  |  |  | 96 | 91 |  |  |  | 96 | 100 | 100 | 100 | Tox. | 100 |  |  | overall activity ranking, in words [1]: most active compounds of the invention; Tolerance ([3]; 15 mg./kg., Tables VIII, X): Tol.; inhibition in vivo at 1 mg/kg ([5]; Haemonchus contortus, sheep, 1 mg/kg, Table X, read-out: Haemonchus, percentage of microorganism killed): 76%; Haemonchus (5 mg/kg), percent of parasites destroyed or expelled ([5]; sheep, 5 mg/kg): 91%
6 | Cc1c(Cl)cccc1NC(=O)c1c(C)c([N+](=O)[O-])cc(C(C)(C)C)c1O [Example 28, 3-tert. butyl-3'-chloro 2', 6-dimethyl-5-nitrosalicylanilide] |  | Tox. | toxic |  |  |  | 87 |  |  |  |  |  |  |  |  |  |  | 87 |  | ineffective against liver flukes | inhibition in vivo at 15 mg/kg [6, 16]: 0%
